Laboratory results as given in ChEMBL document CHEMBL1201862, “PubChem BioAssay data set” (2004).
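Grown in 96-well plates, cells were treated for 48 hours with each compound at five concentrations. Insufficient inhibition: endpoint recorded as highest concentration tested. GI50 = concentration required for 50% inhibition of growth.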 The source made the active and inactive calls. Rule as the data show it: active = GI50 up to about 1.1 µM and inactive = higher.

Assays:
Experiment in all cases: NCI tumour cell line growth inhibition, 48 h
HCT-116 = tested on: HCT-116
LOX IMVI = tested on: LOX IMVI
UACC-257 = tested on: UACC-257
RPMI-8226 = tested on: RPMI-8226
COLO 205 = tested on: COLO 205
SK-MEL-2 = tested on: SK-MEL-2
SK-OV-3 = tested on: SK-OV-3
EKVX = tested on: EKVX
UACC-62 = tested on: UACC-62
U-251 = tested on: U-251
SN12C = tested on: SN12C
MCF7 = tested on: MCF7
SNB-19 = tested on: SNB-19
A549 = tested on: A549
Malme-3M = tested on: Malme-3M
HT-29 = tested on: HT-29
NCI-H522 = tested on: NCI-H522
CAKI-1 = tested on: CAKI-1
SF-295 = tested on: SF-295
SR = tested on: SR

Row | SMILES | GI50 (HCT-116) | GI50 (LOX IMVI) | GI50 (UACC-257) | GI50 (RPMI-8226) | GI50 (COLO 205) | GI50 (SK-MEL-2) | GI50 (SK-OV-3) | GI50 (EKVX) | GI50 (UACC-62) | GI50 (U-251) | GI50 (SN12C) | GI50 (MCF7) | GI50 (SNB-19) | GI50 (A549) | GI50 (Malme-3M) | GI50 (HT-29) | GI50 (NCI-H522) | GI50 (CAKI-1) | GI50 (SF-295) | GI50 (SR)
1 | O=C1c2ccccc2-c2nnc(-c3ccc(Cl)cc3)cc21 | > 10 µM (inactive) | > 10 µM (inactive) | > 10 µM (inactive) | > 10 µM (inactive) | > 10 µM (inactive) | > 10 µM (inactive) | > 10 µM (inactive) | > 10 µM (inactive) | > 10 µM (inactive) | > 10 µM (inactive) | > 10 µM (inactive) | > 10 µM (inactive) | > 10 µM (inactive) | > 10 µM (inactive) | > 10 µM (inactive) | > 10 µM (inactive) | > 10 µM (inactive) | > 10 µM (inactive) | > 10 µM (inactive) | > 10 µM (inactive)
2 | CCSC(=O)N1c2ccc(OC)cc2C=CC1C#N (stereo not given) | 0.000509 µM (active) | 0.00424 µM (active) | < 0.01 µM (active) | 0.00273 µM (active) | 0.00298 µM (active) | < 0.01 µM (active) | 0.00425 µM (active) | 0.392 µM (active) | 0.00877 µM (active) | 0.00403 µM (active) | 0.00782 µM (active) | 0.00883 µM (active) | 0.0176 µM (active) | 0.00565 µM (active) | 0.1 µM (active) | 0.00139 µM (active) | 0.00698 µM (active) | < 0.01 µM (active) | 0.00405 µM (active) | 0.000843 µM (active)
3 | Cc1cc(N(CCC#N)CCC#N)ccc1/C=C1\SC(=S)NC1=O | 54.2 µM (inactive) | > 100 µM (inactive) | > 100 µM (inactive) | 17.2 µM (inactive) | > 100 µM (inactive) | > 100 µM (inactive) | 21.5 µM (inactive) | 51.3 µM (inactive) | 48.6 µM (inactive) | 42.5 µM (inactive) | > 100 µM (inactive) | 54.2 µM (inactive) | > 100 µM (inactive) | 62.4 µM (inactive) | 52.1 µM (inactive) | > 100 µM (inactive) | 19.4 µM (inactive) | 41.4 µM (inactive) | 17.5 µM (inactive) | 22 µM (inactive)
4 | O=C1/C(=C/c2cccc([N+](=O)[O-])c2)N=C(c2ccccc2)N1c1nc2ccc(Sc3ccccc3)cc2[nH]1 | 41.6 µM (inactive) | 38.5 µM (inactive) | 42 µM (inactive) | 33.3 µM (inactive) | 31.8 µM (inactive) | 30.3 µM (inactive) | 34.4 µM (inactive) | 62.8 µM (inactive) | 36.1 µM (inactive) | 37.3 µM (inactive) | 60 µM (inactive) | 31.5 µM (inactive) | 80 µM (inactive) | 55.2 µM (inactive) | 63.1 µM (inactive) | 45.2 µM (inactive) | 32.9 µM (inactive) | 65.5 µM (inactive) | 35.7 µM (inactive) | 24.8 µM (inactive)
5 | COc1ccc(OC)c(C2CCc3nc4nc(N)nc(N)c4cc3C2)c1 (stereo not given) | 1.83 µM (inactive) | 3.12 µM (inactive) | 2.48 µM (inactive) | 5.78 µM (inactive) | 3.32 µM (inactive) | 1.97 µM (inactive) | 4.1 µM (inactive) | 13.4 µM (inactive) | 2.03 µM (inactive) | 1.76 µM (inactive) | 1.77 µM (inactive) | 1.89 µM (inactive) | 2.43 µM (inactive) | 14.7 µM (inactive) | 1.92 µM (inactive) | 3.01 µM (inactive) | 2.19 µM (inactive) | 20.8 µM (inactive) | 11.7 µM (inactive) | 2.48 µM (inactive)
6 | O=C1/C(=C\c2ccccc2)c2ccccc2N1Cc1ccccc1 | 4.72 µM (inactive) | 7.45 µM (inactive) | 10.9 µM (inactive) | 2.74 µM (inactive) | 16.6 µM (inactive) | 12.2 µM (inactive) | 11.1 µM (inactive) | 12.5 µM (inactive) | 7.1 µM (inactive) | 8.69 µM (inactive) | 11.9 µM (inactive) | 3.45 µM (inactive) | 10.3 µM (inactive) | 11.6 µM (inactive) | 6.92 µM (inactive) | 6.15 µM (inactive) | 10.1 µM (inactive) | 6.67 µM (inactive) | 11.4 µM (inactive) | 2.04 µM (inactive)
7 | COC(OC)(c1ccccc1)C(Br)Br | 17.9 µM (inactive) | 28.2 µM (inactive) | > 100 µM (inactive) | 36.5 µM (inactive) | 17.3 µM (inactive) | > 100 µM (inactive) | > 100 µM (inactive) | > 100 µM (inactive) | 55.1 µM (inactive) | > 100 µM (inactive) | > 100 µM (inactive) | 39 µM (inactive) | > 100 µM (inactive) | > 100 µM (inactive) | 16.7 µM (inactive) | 57.4 µM (inactive) | 17.8 µM (inactive) | 24.6 µM (inactive) | > 100 µM (inactive) | 21 µM (inactive)
8 | CO[C@H]1C=CO[C@@]2(C)Oc3c(C)c(O)c4c(O)c(c(CN5CCN(C)CC5)c(O)c4c3C2=O)NC(=O)/C(C)=C\C=C[C@H](C)[C@H](O)C(C)[C@@H](O)C(C)[C@H](OC(C)=O)[C@@H]1C (stereo not given in full) | 13.4 µM (inactive) | 14.3 µM (inactive) | 21 µM (inactive) | 4.62 µM (inactive) | 5.7 µM (inactive) | 41.8 µM (inactive) | > 100 µM (inactive) | 68.5 µM (inactive) | 34.6 µM (inactive) | 32.7 µM (inactive) | 30.3 µM (inactive) | 11.1 µM (inactive) | > 100 µM (inactive) | 39.7 µM (inactive) | 40.6 µM (inactive) | 21.6 µM (inactive) | 18.3 µM (inactive) | > 77.1 µM (inactive) | > 100 µM (inactive) | 6.62 µM (inactive)
9 | CCOCC(=O)N[C@H]1CCc2cc(OC(=O)COCC)c(OC)c(OC)c2-c2ccc(SC)c(=O)cc21 | 0.0175 µM (active) | 0.0303 µM (active) | 0.00902 µM (active) | 0.0299 µM (active) | 0.0219 µM (active) | 0.019 µM (active) | 0.00867 µM (active) | 0.0571 µM (active) | 0.0102 µM (active) | 0.0275 µM (active) | 0.0625 µM (active) | 0.00686 µM (active) | 0.885 µM (active) | 0.0355 µM (active) | 0.0138 µM (active) | 0.0177 µM (active) | 0.0151 µM (active) | 0.15 µM (active) | 0.0157 µM (active) | 0.0159 µM (active)
10 | Cn1c(SCc2c[nH]c3ccccc23)nnc1-c1ccc(Cl)cc1Cl | 23.4 µM (inactive) | 5.18 µM (inactive) | 19.9 µM (inactive) | 13.1 µM (inactive) | 14 µM (inactive) | 12.3 µM (inactive) | 15.9 µM (inactive) | 15.3 µM (inactive) | 12 µM (inactive) | 15.1 µM (inactive) | 17.1 µM (inactive) | 22.7 µM (inactive) | 16.8 µM (inactive) | 17.5 µM (inactive) | 18.9 µM (inactive) | 17.3 µM (inactive) | 12.7 µM (inactive) | 20 µM (inactive) | 8.3 µM (inactive) | 4.23 µM (inactive)
11 | COc1cc2c3c(cc(Cl)nc3c1OC)C(=O)C(=O)N2 | 4.33 µM (inactive) | 9.44 µM (inactive) | 8.39 µM (inactive) | 2.68 µM (inactive) | 21.9 µM (inactive) | 14.1 µM (inactive) | 18 µM (inactive) | 6.81 µM (inactive) | 6.28 µM (inactive) | 16.5 µM (inactive) | 8.99 µM (inactive) | 2.05 µM (inactive) | 22.9 µM (inactive) | 19.7 µM (inactive) | 2.06 µM (inactive) | 22.4 µM (inactive) | 4.22 µM (inactive) | 15.1 µM (inactive) | 18.6 µM (inactive) | 3.26 µM (inactive)
12 | CN(CCCCCl)P(=O)(OCc1ccc([N+](=O)[O-])o1)OC[C@H]1O[C@@H](n2cc(F)c(=O)[nH]c2=O)C[C@@H]1O (stereo not given in full) | 0.995 µM (active) | 0.07 µM (active) | 30.8 µM (inactive) | 1.27 µM (inactive) | < 0.01 µM (active) | 17.1 µM (inactive) | 0.372 µM (active) | 35.4 µM (inactive) | 0.437 µM (active) | 1.63 µM (inactive) | 0.107 µM (active) | < 0.0227 µM (active) | 1.85 µM (inactive) | 0.0301 µM (active) | 3.25 µM (inactive) | 0.502 µM (active) | 3.77 µM (inactive) | 0.0693 µM (active) | 0.0914 µM (active) | 0.0702 µM (active)
